This note sets out measurements from PubChem BioAssay (NCI).

Structures are written as SMILES.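 All cell lines were grown in 96-well plates and treated with compound for 48 hours. The concentration for full growth arrest is given as TGI.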 A value given as a limit tells only on which side of the number the result lay.

Some test systems named below: A549 NSCLC; K-562 leukemia; TK-10 renal; CAKI-1 renal; MCF7 breast; NCI-H522 lung; BT-549 breast; OVCAR-8 ovarian; SN12C renal; HS 578T breast; IGROV1 ovarian.
Holding throughout (assay): NCI tumour cell line growth inhibition, 48 h

Turning to `CC(=O)O[C@H]1C#C/C=C\C#CC[C@@H]2C(=O)N[C@@H]12`, the TGI was above 100 µM in the test with A549 NSCLC; above 100 µM with K-562 leukemia; above 100 µM with TK-10 renal; above 40.1 µM in the test with CAKI-1 renal; above 100 µM in the test on MCF7 breast; above 100 µM with NCI-H522 lung. Also, the TGI is above 86.5 µM in the test on BT-549 breast; 73.1 µM in the test on OVCAR-8 ovarian; above 80.4 µM with SN12C renal; above 86.2 µM in the test with HS 578T breast; above 100 µM in the test on IGROV1 ovarian.
Consider `NC(=O)NNC(=O)c1nc[nH]c1[N+](=O)[O-]`, for which the TGI in the test on A549 NSCLC, with K-562 leukemia, in the test on TK-10 renal, in the test with CAKI-1 renal, in the test with MCF7 breast and with NCI-H522 lung was above 100 µM each time. The TGI in the test on BT-549 breast, in the test on OVCAR-8 ovarian, with SN12C renal, in the test with HS 578T breast and in the test with IGROV1 ovarian was above 100 µM in each case.
Consider `CC1=NN(c2ccc(S(=O)(=O)O)cc2)C2(C1)SCC(=O)N2c1nc2ccccc2s1` (centres undefined), for which the TGI in the test with A549 NSCLC, in the test on K-562 leukemia, with TK-10 renal, with CAKI-1 renal, in the test with MCF7 breast and in the test with NCI-H522 lung was above 100 µM throughout. The TGI in the test with BT-549 breast, with OVCAR-8 ovarian, with SN12C renal, in the test with HS 578T breast and with IGROV1 ovarian was above 100 µM throughout.
Turning to `CN(C)c1ccc(C2SCC(=O)N2NS(=O)(=O)c2cccc(C(=O)O)c2)cc1` (centres undefined), the TGI with A549 NSCLC, with K-562 leukemia, in the test on TK-10 renal, with CAKI-1 renal, in the test with MCF7 breast and with NCI-H522 lung was above 100 µM each time. Besides, the TGI with BT-549 breast is above 100 µM; with OVCAR-8 ovarian it was 32.6 µM; in the test on SN12C renal, above 100 µM; in the test with HS 578T breast, above 100 µM; in the test with IGROV1 ovarian, above 100 µM.
As for `CCN1C(=O)C(=C/C=C/c2ccc([N+](=O)[O-])cc2)C(=O)N(CC)C1=S`, the TGI in the test with A549 NSCLC is above 100 µM; in the test on K-562 leukemia, 48.4 µM; with TK-10 renal it was 37.8 µM; in the test with CAKI-1 renal, 68.7 µM; in the test on MCF7 breast, 52.5 µM; with BT-549 breast it was 32.5 µM. The TGI came out at 39.7 µM with OVCAR-8 ovarian, 57.3 µM with SN12C renal, 55.1 µM in the test on HS 578T breast and 32.6 µM with IGROV1 ovarian.
For `O=C1NC(N/N=C/C(O)C(O)C(O)CO)=N/C1=C\c1ccco1` (centres undefined), the TGI in the test with A549 NSCLC, in the test with K-562 leukemia, in the test on TK-10 renal, in the test on CAKI-1 renal, with MCF7 breast and in the test with NCI-H522 lung was above 100 µM throughout. In addition, the TGI in the test on BT-549 breast, in the test with OVCAR-8 ovarian, in the test with SN12C renal, in the test on HS 578T breast and in the test with IGROV1 ovarian was above 100 µM throughout.
Take `O=C(NCCCCCCNCc1cccc2ccccc12)Nc1cccc2ccccc12`: the TGI in the test on A549 NSCLC, in the test with K-562 leukemia, in the test on TK-10 renal, in the test on CAKI-1 renal, in the test on MCF7 breast and in the test with NCI-H522 lung was above 100 µM each time. In addition, the TGI with BT-549 breast, in the test with OVCAR-8 ovarian, in the test with SN12C renal, in the test with HS 578T breast and in the test with IGROV1 ovarian was above 100 µM in each case.
For `O=C(O)CC[N+]1=CCC(c2ccccc2)(c2ccccc2)O1`, the TGI with A549 NSCLC, in the test on K-562 leukemia, in the test on TK-10 renal, in the test with CAKI-1 renal, in the test with MCF7 breast and with NCI-H522 lung was above 100 µM each time. Moreover, the TGI in the test on BT-549 breast, with OVCAR-8 ovarian, in the test with SN12C renal, in the test with HS 578T breast and with IGROV1 ovarian was above 100 µM throughout.
As to `Cc1cn(C2CC(n3cc(Cn4cc(Br)c(=O)[nH]c4=O)nn3)C(CO)O2)c(=O)[nH]c1=O` (centres undefined), the TGI in the test on A549 NSCLC, in the test on TK-10 renal, with CAKI-1 renal, in the test on MCF7 breast, with BT-549 breast and with OVCAR-8 ovarian was above 100 µM in each case. Moreover, the TGI with SN12C renal, in the test on HS 578T breast and in the test with IGROV1 ovarian was above 100 µM throughout.
On to `O=c1nc2c(c(-c3ccccc3Cl)[nH]1)COC/C2=C\c1ccccc1Cl`, for which the TGI in the test on TK-10 renal, with CAKI-1 renal, in the test with MCF7 breast, in the test with BT-549 breast, in the test on OVCAR-8 ovarian and with SN12C renal was above 100 µM in each case. Also, the TGI in the test with HS 578T breast and in the test on IGROV1 ovarian was above 100 µM each time.
